We go through nine molecules from ChEMBL document CHEMBL3612057, “Discovery of indolizines containing triazine moiety as new leads for the development of antitumoral agents targeting mitotic events” (2015).

SMILES strings stand for the structures. Calls of active or inactive are those of the source. The rule behind the calls is not given here.

The species named for one assay is Ovis aries. The experiment in a line: Inhibition of sheep tubulin polymerization at 100 uM by fluorescence assay.
The test system of a further assay is UACC-62. Briefly: Cytotoxicity against human UACC62 cells assessed as growth inhibition at 10 uM after 24 hrs by SRB assay. It is filed as functional. Conditions: UACC-62, 24 h, read-out: GI. A general note: In SRB staining, fixed cells bind dye roughly in proportion to their protein.
Another assay has as its system TK-10. Briefly: Cytotoxicity against human TK10 cells assessed as growth inhibition at 10 uM after 24 hrs by SRB assay. In kind it is functional.
The next assay deals with CCRF-CEM. Briefly: Cytotoxicity against human CCRF-CEM cells assessed as growth inhibition at 10 uM after 24 hrs by SRB assay. In kind it is functional.
In another assay the test system is Malme-3M. The experiment in a line: Cytotoxicity against human MALME-3M cells assessed as growth inhibition at 10 uM after 24 hrs by SRB assay. It is filed as functional. Conditions: read-out: GI.
For another assay, the system named is RPMI-8226. Briefly: Cytotoxicity against human RPMI8226 cells assessed as growth inhibition at 10 uM after 24 hrs by SRB assay. It is filed as functional.
In the next assay the test system is OVCAR-3. The experiment in a line: Cytotoxicity against human OVCAR3 cells assessed as growth inhibition at 10 uM after 24 hrs by SRB assay. It is filed as functional.
The test system of the next assay is MDA-MB-231. The experiment in a line: Cytotoxicity against human MDA-MB-231 cells assessed as growth inhibition at 10 uM after 24 hrs by SRB assay. In kind it is functional. Conditions: MDA-MB-231, 24 h, read-out: GI.
Another assay concerns SNB-75. The experiment in a line: Cytotoxicity against human SNB75 cells assessed as growth inhibition at 10 uM after 24 hrs by SRB assay. In kind it is functional. The settings on record: SNB-75, 24 h, read-out: GI.
A further assay relates to U-251. The experiment in a line: Cytotoxicity against human U251 cells assessed as growth inhibition at 10 uM after 24 hrs by SRB assay. In kind it is functional. Conditions: U-251, 24 h, read-out: GI.
A further assay relates to RXF 393. The experiment in a line: Cytotoxicity against human RXF393 cells assessed as growth inhibition at 10 uM after 24 hrs by SRB assay. Conditions: RXF 393, 24 h, read-out: GI. It is filed as functional.
In another assay the test system is SK-MEL-28. The experiment in a line: Cytotoxicity against human SK-MEL-28 cells assessed as growth inhibition at 10 uM after 24 hrs by SRB assay. In kind it is functional.
The test system of the next assay is K562. Briefly: Cytotoxicity against human K562 cells assessed as growth inhibition at 10 uM after 24 hrs by SRB assay. It is filed as functional.
A further assay concerns OVCAR-4. Briefly: Cytotoxicity against human OVCAR4 cells assessed as growth inhibition at 10 uM after 24 hrs by SRB assay. In kind it is functional.
The subject of the next assay is CAKI-1. The experiment in a line: Cytotoxicity against human CAKI-1 cells assessed as growth inhibition at 10 uM after 24 hrs by SRB assay. In kind it is functional.
For the next assay, the system named is SK-MEL-5. Briefly: Cytotoxicity against human SK-MEL-5 cells assessed as growth inhibition at 10 uM after 24 hrs by SRB assay. In kind it is functional.
The next assay concerns NCI-H460. Briefly: Cytotoxicity against human NCI-H460 cells assessed as growth inhibition at 10 uM after 24 hrs by SRB assay. It is filed as functional.
In another assay the test system is NCI-H522. Briefly: Cytotoxicity against human NCI-H522 cells assessed as growth inhibition at 10 uM after 24 hrs by SRB assay. In kind it is functional. The settings on record: NCI-H522, 24 h, read-out: GI.
Another assay relates to T47D. The experiment in a line: Cytotoxicity against human T47D cells assessed as growth inhibition at 10 uM after 24 hrs by SRB assay. In kind it is functional.
Assay [1] can be described thus: Cytotoxicity against human Hs578T cells assessed as growth inhibition at 10 uM after 24 hrs by SRB assay. It is filed as functional. Conditions: Hs-578T, read-out: GI.
The next assay relates to MDA-MB-435. The experiment in a line: Cytotoxicity against human MDA-MB-435 cells assessed as growth inhibition at 10 uM after 24 hrs by SRB assay. In kind it is functional.
The test system of the next assay is UACC-257. The experiment in a line: Cytotoxicity against human UACC257 cells assessed as growth inhibition at 10 uM after 24 hrs by SRB assay. In kind it is functional. Conditions: UACC-257, 24 h, read-out: GI.
Another assay deals with HCT-116. Briefly: Cytotoxicity against human HCT116 cells assessed as growth inhibition at 10 uM after 24 hrs by SRB assay. It is filed as functional.
Another assay concerns PC-3. The experiment in a line: Cytotoxicity against human PC3 cells assessed as growth inhibition at 10 uM after 24 hrs by SRB assay. It is filed as functional.
In a further assay the test system is A549. Briefly: Cytotoxicity against human A549 cells assessed as growth inhibition at 10 uM after 24 hrs by SRB assay. In kind it is functional. The settings on record: A549, 24 h, read-out: GI.
Another assay has as its system NCI-H226. Briefly: Cytotoxicity against human NCI-H226 cells assessed as growth inhibition at 10 uM after 24 hrs by SRB assay. It is filed as functional.
Another assay has as its system SF-295. Briefly: Cytotoxicity against human SF295 cells assessed as growth inhibition at 10 uM after 24 hrs by SRB assay. In kind it is functional.
For the next assay, the system named is ACHN. The experiment in a line: Cytotoxicity against human ACHN cells assessed as growth inhibition at 10 uM after 24 hrs by SRB assay. It is filed as functional. The settings on record: read-out: GI.
The next assay concerns MCF7. The experiment in a line: Cytotoxicity against human MCF7 cells assessed as growth inhibition at 10 uM after 24 hrs by SRB assay. It is filed as functional.
A further assay has as its system OVCAR-8. The experiment in a line: Cytotoxicity against human OVCAR8 cells assessed as growth inhibition at 10 uM after 24 hrs by SRB assay. In kind it is functional. The settings on record: OVCAR-8, 24 h, read-out: GI.
Another assay deals with HOP-62. The experiment in a line: Cytotoxicity against human HOP62 cells assessed as growth inhibition at 10 uM after 24 hrs by SRB assay. In kind it is functional. Conditions: HOP-62, 24 h, read-out: GI.
Another assay relates to HL-60(TB). The experiment in a line: Cytotoxicity against human HL-60(TB) cells assessed as growth inhibition at 10 uM after 24 hrs by SRB assay. It is filed as functional.
The next assay relates to SF-539. Briefly: Cytotoxicity against human SF539 cells assessed as growth inhibition at 10 uM after 24 hrs by SRB assay. In kind it is functional. Conditions: SF-539, 24 h, read-out: GI.
For a further assay, the system named is 786-0. The experiment in a line: Cytotoxicity against human 786-0 cells assessed as growth inhibition at 10 uM after 24 hrs by SRB assay. It is filed as functional. The settings on record: 786-0, 24 h, read-out: GI.
A further assay deals with SR. Briefly: Cytotoxicity against human SR cells assessed as growth inhibition at 10 uM after 24 hrs by SRB assay. It is filed as functional.
In another assay the test system is HOP-92. The experiment in a line: Cytotoxicity against human HOP92 cells assessed as growth inhibition at 10 uM after 24 hrs by SRB assay. It is filed as functional.
A further assay concerns SK-OV-3. Briefly: Cytotoxicity against human SKOV3 cells assessed as growth inhibition at 10 uM after 24 hrs by SRB assay. It is filed as functional. The settings on record: SK-OV-3, 24 h, read-out: GI.
The test system of another assay is NCI/ADR-RES. The experiment in a line: Cytotoxicity against human NCI/ADR-RES cells assessed as growth inhibition at 10 uM after 24 hrs by SRB assay. Conditions: read-out: GI. In kind it is functional.

Take `O=C(c1ccc(Br)cc1)c1cc(-c2nc(=O)[nH]c(=O)[nH]2)c2ccccn12`: the inhibition result in the assay filed under Ovis aries was “inactive”.

For the molecule `Cn1c(-c2cc(C(=O)c3ccc(Br)cc3)n3ccccc23)nc(=O)[nH]c1=O`, the inhibition entry in the assay listed under Ovis aries was “inactive”.

On to `COc1nc(OC)nc(-c2cc(C(=O)c3ccc(C#N)cc3)n3ccccc23)n1`, for which, in the assay filed under Ovis aries, the inhibition result is “inactive”.

Take `COc1nc(OC)nc(-c2cc(C(=O)c3ccc(C)cc3)n3ccc(C#N)cc23)n1`: the inhibition of growth at 10 µM in the assay with UACC-62 was 14%; in the assay on Malme-3M it was 17%; in the assay with MDA-MB-231 it was 39%; in the assay with SNB-75, -14%; with U-251 it was 56%; in the assay on RXF 393 it was 52%. The inhibition of growth at 10 µM in the assay on NCI-H522 stood at 21%; in [1], 42%; with UACC-257, 16%; with A549, 11%; in the assay on SF-295 (SF-295, 24 h, read-out: GI), 47%; in the assay with ACHN it was 15%. The inhibition of growth at 10 µM with OVCAR-8 came out at 14%; with HOP-62, 60%; with SF-539 it was 42%; in the assay on 786-0 it was 40%; with HOP-92 (HOP-92, 24 h, read-out: GI) it was 11%; in the assay on SK-OV-3 it was 42%. For the same molecule, the “growth inhibition (GI)” value in the assay on TK-10, with CCRF-CEM, in the assay with RPMI-8226, in the assay on OVCAR-3, with SK-MEL-28 and in the assay on K562 was “inactive” throughout. The “growth inhibition (GI)” value with OVCAR-4, with CAKI-1, with SK-MEL-5, with NCI-H460, with T47D and in the assay on MDA-MB-435 was “inactive” each time. For the same molecule, the “growth inhibition (GI)” value with HCT-116, with PC-3, with NCI-H226, with MCF7, with HL-60(TB) and in the assay with SR was “inactive” in each case. In addition, the inhibition result in the assay filed under Ovis aries was “inactive”.

Consider `COc1nc(OC)nc(-c2cc(C(=O)c3ccc(Br)cc3)n3cc(C)cc(C)c23)n1`, for which, in the assay filed under Ovis aries, the inhibition entry is “inactive”.

In the case of `COc1nc(OC)nc(-c2cc(C(=O)c3ccc(-c4ccccc4)cc3)n3ccccc23)n1`, the inhibition result in the assay listed under Ovis aries was “inactive”.

`COc1nc(-c2cc(C(=O)c3ccc(Br)cc3)n3ccccc23)[nH]c(=O)n1`: the inhibition entry in the assay filed under Ovis aries was “inactive”.

For `COc1nc(OC)nc(-c2cc(C(=O)c3ccc(F)cc3)n3ccccc23)n1`, the inhibition entry in the assay filed under Ovis aries is “inactive”.

For the molecule `COc1nc(OC)nc(-c2cc(C(=O)c3cc(OC)c(OC)c(OC)c3)n3ccc(C)cc23)n1`, the inhibition of growth at 10 µM is 63% in the assay on UACC-62; 26% in the assay with CCRF-CEM (read-out: GI); 61% in the assay with Malme-3M; 30% in the assay with RPMI-8226 (RPMI-8226, 24 h, read-out: GI); 75% with OVCAR-3 (OVCAR-3, 24 h, read-out: GI); 25% in the assay with MDA-MB-231. For the same molecule, the inhibition of growth at 10 µM turned out to be 58% in the assay with SNB-75; 15% in the assay on U-251; 41% in the assay with RXF 393; 40% in the assay with SK-MEL-28 (SK-MEL-28, 24 h, read-out: GI); 56% in the assay on K562 (K562, 24 h, read-out: GI); 21% with OVCAR-4 (OVCAR-4, 24 h, read-out: GI). The inhibition of growth at 10 µM worked out at 25% with CAKI-1 (CAKI-1, 24 h, read-out: GI); 63% with SK-MEL-5 (SK-MEL-5, 24 h, read-out: GI); 16% in the assay with NCI-H460 (NCI-H460, 24 h, read-out: GI); 43% in the assay with NCI-H522; 35% in assay [1]; 100% in the assay with MDA-MB-435 (MDA-MB-435, 24 h, read-out: GI). Also, the inhibition of growth at 10 µM in the assay with UACC-257 is 38%; in the assay with HCT-116 (HCT-116, 24 h, read-out: GI), 27%; with PC-3 (PC-3, 24 h, read-out: GI), 36%; in the assay on A549, 36%; with NCI/ADR-RES, 24%; in the assay on ACHN, 47%. Further, the inhibition of growth at 10 µM came out at 73% in the assay with MCF7 (MCF7, 24 h, read-out: GI); 15% with OVCAR-8; 28% in the assay on HOP-62; 60% with HL-60(TB) (HL-60, 24 h, read-out: GI); 29% with SF-539; 20% in the assay on 786-0. The inhibition of growth at 10 µM in the assay with SR (read-out: GI) is 74%; in the assay on SK-OV-3, 29%. Further, the “growth inhibition (GI)” value in the assay on TK-10, in the assay on NCI-H226, with SF-295 and in the assay with HOP-92 was “inactive” each time. For the same molecule, the inhibition entry in the assay listed under Ovis aries was “inactive”.
